The source of these data is US20230312576A1, “4-(7H-PYRROLO[2,3-D]PYRIMIDIN-4-YL)-3,6-DIHYDROPYRIDINE-1-(2H)-CARBOXAMIDE DERIVATIVES AS LIMK AND/OR ROCK KINASES INHIBITORS FOR USE IN THE TREATMENT OF CANCER” (CENTRE NATIONAL DE LA RECHERCHE SCIENTIFIQUE, priority 2020, published 2023).

Molecules are shown by their SMILES. Where two headings read alike, the source gives them in different places.

The target in experiment [1] is ROCK2 (Homo sapiens (Human), UniProt O75116). Nature of the experiment: Z'Lyte assay, ROCK2 inhibition at a single concentration. Format: biochemical.
Experiment [2] deals with ROCK1 (Homo sapiens (Human), UniProt Q13464). Nature of the experiment: Z'Lyte assay, ROCK1 inhibition at a single concentration. The format is biochemical.
Experiment [3] addresses LIMK2 (Homo sapiens (Human), UniProt P53671). Nature of the experiment: Lanthascreen Eu binding assay (TR-FRET), inhibition of LIMK2. Background: TR-FRET usually uses a lanthanide donor and a delayed reading to cut background.
The test system of experiment [4] is cofilin phosphorylation, HeLa cells. Nature of the experiment: Cofilin phosphorylation by Western Blot (anti-phospho-Ser3-cofilin) in HeLa cells. The note with it: for inhibition at 25 µM: Homo sapiens. Format: cell-based.
Experiment [5] addresses LIMK1 (Homo sapiens (Human), UniProt P53667). Description: Lanthascreen Eu binding assay (TR-FRET), inhibition of LIMK1.
The mark [6] stands for this setting: read-out: % inhibition (ROCK2) 1 uM, 1 uM.
[7] abbreviates: read-out: % inhibition (ROCK1) 1 uM, 1 uM.
Setting [8] is: HeLa, 2 h, read-out: % inhibition of cofilin phosphorylation in HeLa cells (treatment 2 h, at 25 μM), Table 2, normalized to the control condition DMSO.
The mark [9] stands for this setting: read-out: % inhibition Cofilin phosphorylation HeLa cells treated 2 h with 25 uM of inhibitor, HeLa cells, 2 h, 25 uM.
Setting [10] is: read-out: % inhibition (ROCK2) 1 uM.
Setting [11] is: read-out: % inhibition (ROCK1) 1 uM.
The mark [12] stands for this setting: HeLa, 2 h, read-out: % inhibition Cofilin phosphorylation HeLa cells treated 2 h with 25 uM of inhibitor.
[13] abbreviates: HeLa, 2 h, read-out: % inhibition of cofilin phosphorylation in HeLa cells (treatment 2 h, at 25 μM).

Chain of ROCK1 (Q13464 whole entry): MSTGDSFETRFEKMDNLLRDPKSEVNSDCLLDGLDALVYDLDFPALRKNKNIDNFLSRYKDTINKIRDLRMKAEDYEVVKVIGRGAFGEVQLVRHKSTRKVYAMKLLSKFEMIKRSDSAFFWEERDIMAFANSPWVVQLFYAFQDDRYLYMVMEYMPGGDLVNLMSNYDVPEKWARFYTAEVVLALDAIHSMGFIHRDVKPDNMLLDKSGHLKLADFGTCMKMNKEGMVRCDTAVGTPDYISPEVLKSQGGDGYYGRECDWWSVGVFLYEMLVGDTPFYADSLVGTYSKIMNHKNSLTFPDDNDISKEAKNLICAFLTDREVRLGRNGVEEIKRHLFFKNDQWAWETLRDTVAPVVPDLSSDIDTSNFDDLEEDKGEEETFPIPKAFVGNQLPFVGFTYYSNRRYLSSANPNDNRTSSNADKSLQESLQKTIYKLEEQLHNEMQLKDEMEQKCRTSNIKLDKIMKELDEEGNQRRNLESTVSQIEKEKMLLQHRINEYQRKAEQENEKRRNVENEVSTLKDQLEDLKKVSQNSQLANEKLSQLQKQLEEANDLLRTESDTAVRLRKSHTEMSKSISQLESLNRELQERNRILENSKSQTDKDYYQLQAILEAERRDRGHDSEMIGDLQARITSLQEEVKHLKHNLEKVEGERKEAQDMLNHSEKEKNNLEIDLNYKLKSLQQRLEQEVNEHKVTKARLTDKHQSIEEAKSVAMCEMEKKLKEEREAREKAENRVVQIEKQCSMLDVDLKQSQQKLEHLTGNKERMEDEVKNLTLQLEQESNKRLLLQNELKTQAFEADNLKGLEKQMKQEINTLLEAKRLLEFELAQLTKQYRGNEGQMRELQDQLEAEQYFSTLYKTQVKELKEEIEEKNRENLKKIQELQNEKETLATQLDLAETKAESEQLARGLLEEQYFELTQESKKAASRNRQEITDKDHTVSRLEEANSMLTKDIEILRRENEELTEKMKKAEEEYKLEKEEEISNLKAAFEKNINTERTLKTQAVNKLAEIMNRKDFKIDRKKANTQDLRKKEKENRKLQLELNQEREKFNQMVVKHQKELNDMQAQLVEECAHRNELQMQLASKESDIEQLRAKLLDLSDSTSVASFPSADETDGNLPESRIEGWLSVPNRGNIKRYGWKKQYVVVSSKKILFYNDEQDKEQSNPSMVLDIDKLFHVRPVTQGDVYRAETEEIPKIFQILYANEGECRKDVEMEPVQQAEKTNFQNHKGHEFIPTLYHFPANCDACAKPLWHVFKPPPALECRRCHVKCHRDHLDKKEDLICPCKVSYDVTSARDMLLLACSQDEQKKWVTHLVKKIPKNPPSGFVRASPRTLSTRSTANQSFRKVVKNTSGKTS
Chain of ROCK2 (O75116 whole entry): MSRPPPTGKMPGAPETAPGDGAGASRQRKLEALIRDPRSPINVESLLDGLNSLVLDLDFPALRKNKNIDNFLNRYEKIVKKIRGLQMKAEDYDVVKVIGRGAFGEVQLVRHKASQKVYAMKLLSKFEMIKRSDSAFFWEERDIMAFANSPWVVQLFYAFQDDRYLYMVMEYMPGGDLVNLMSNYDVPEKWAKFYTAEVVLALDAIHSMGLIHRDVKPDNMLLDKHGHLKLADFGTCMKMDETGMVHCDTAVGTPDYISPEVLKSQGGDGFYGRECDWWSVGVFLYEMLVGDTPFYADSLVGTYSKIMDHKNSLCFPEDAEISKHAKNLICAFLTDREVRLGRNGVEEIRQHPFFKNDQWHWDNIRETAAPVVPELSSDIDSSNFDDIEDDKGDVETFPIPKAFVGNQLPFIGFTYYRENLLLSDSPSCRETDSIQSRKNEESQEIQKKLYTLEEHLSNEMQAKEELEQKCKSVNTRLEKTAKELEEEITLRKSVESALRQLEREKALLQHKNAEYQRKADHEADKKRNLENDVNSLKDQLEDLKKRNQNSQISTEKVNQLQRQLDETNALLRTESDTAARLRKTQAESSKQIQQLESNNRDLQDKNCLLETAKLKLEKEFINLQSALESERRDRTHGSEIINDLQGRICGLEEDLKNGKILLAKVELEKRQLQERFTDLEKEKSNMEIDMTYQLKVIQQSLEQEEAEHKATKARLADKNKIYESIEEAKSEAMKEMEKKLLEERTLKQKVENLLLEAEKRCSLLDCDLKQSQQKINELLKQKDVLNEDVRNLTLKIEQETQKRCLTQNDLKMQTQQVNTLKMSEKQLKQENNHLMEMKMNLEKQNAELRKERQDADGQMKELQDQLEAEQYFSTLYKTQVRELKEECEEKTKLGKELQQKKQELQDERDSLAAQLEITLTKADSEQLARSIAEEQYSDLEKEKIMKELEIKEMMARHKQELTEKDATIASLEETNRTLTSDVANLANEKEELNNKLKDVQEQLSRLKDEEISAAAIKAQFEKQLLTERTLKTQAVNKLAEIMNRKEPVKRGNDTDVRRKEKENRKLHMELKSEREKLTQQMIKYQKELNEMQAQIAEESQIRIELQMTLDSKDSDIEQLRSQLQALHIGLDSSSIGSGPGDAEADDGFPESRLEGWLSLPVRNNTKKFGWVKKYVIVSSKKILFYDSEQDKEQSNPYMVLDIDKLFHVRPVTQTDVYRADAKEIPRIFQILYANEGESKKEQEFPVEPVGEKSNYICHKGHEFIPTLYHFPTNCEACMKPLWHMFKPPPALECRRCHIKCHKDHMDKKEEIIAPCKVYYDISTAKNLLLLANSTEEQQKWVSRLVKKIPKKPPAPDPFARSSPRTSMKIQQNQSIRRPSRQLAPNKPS
Chain of LIMK2 (P53671 whole entry): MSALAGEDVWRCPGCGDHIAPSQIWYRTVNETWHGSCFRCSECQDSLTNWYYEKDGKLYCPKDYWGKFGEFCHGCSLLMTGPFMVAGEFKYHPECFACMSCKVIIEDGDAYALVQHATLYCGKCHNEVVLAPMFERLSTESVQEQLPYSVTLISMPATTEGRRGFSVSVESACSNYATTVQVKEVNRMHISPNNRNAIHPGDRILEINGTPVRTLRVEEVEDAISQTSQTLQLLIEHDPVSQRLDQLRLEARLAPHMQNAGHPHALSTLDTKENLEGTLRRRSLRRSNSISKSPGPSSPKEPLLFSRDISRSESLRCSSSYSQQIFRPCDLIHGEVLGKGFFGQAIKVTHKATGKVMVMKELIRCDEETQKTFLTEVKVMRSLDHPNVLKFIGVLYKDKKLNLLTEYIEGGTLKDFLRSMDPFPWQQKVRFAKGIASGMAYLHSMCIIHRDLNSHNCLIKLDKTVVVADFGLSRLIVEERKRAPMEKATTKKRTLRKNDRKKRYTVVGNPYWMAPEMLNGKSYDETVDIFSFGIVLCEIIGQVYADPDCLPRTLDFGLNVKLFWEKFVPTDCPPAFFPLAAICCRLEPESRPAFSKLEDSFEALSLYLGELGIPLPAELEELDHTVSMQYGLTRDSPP
Chain of LIMK1 (P53667 whole entry): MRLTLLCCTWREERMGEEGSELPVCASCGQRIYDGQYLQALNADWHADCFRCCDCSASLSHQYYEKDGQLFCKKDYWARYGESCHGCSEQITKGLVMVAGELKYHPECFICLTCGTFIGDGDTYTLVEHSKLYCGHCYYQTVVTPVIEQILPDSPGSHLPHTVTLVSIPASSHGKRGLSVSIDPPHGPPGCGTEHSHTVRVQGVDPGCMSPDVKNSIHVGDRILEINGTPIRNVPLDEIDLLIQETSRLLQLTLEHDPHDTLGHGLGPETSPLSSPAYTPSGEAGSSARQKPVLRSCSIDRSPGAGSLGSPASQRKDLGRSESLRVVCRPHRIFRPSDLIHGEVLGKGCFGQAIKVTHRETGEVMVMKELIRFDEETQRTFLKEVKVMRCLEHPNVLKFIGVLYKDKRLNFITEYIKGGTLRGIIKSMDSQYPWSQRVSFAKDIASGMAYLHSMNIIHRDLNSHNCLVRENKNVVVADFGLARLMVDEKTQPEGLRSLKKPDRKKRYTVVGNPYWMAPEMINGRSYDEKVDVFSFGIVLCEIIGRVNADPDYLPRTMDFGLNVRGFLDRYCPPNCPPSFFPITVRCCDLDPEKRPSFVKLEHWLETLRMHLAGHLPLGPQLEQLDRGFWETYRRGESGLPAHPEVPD

What is called inhibition is the drop in the measured response relative to a control, in per cent. For orientation: Ki means a dissociation constant, usually derived from enzyme kinetics or from competition with a known ligand. On to `CCc1cccc(NC(=O)N2CC=C(c3ncnc4[nH]c5c(c34)CCC5)CC2)c1` [Compound 129, N-(3-Ethylphenyl)-4-(7,9,11-triazatricyclo[6.4.0.02,6]dodeca-1(8),2(6),9,11-tetraen-12-yl)-3,6-dihydropyridine-1(2H)-carboxamide], for which the values for the inhibition at 1 µM in experiment [1] (setting [6]) and in experiment [2] (setting [7]) were 11% and 18%, respectively. The Ki turned out to be 54.9 nM in experiment [3] (Lanthascreen Eu binding assay) and 16.6 nM in experiment [5] (Lanthascreen Eu binding assay). The inhibition at 25 µM in experiment [4] (setting [8]) and in experiment [4] (setting [9]) was 84.5% in each case.

For `Cc1c[nH]c2ncnc(C3=CCN(C(=O)Nc4cccc(OCC5CCC(F)(F)CC5)c4)CC3)c12` [Compound 191, N-(3-((4,4-difluorocyclohexyl)methoxy)phenyl)-4-(5-methyl-7H-pyrrolo[2,3-d]pyrimidin-4-yl)-3,6-dihydropyridine-1(2H)-carboxamide], the values for the inhibition at 1 µM in experiment [1] (setting [6]) and in experiment [2] (setting [7]) were 57% and 72%, respectively. The results for the Ki in experiment [3] (Lanthascreen Eu binding assay) and in experiment [5] (Lanthascreen Eu binding assay) were 217 nM and 85.5 nM, respectively. The inhibition at 25 µM in experiment [4] (setting [8]) worked out at 87%.

For `O=C(Nc1cccc(Cl)c1)N1CC=C(c2ncnc3[nH]c4c(c23)CCCCC4)CC1` [Compound 117, N-(3-Chlorophenyl)-4-(5,6,7,8,9,10-hexahydrocyclohepta[4,5]pyrrolo[2,3-d]pyrimidin-4-yl)-3,6-dihydropyridine-1(2H)-carboxamide], the inhibition at 1 µM came out at 7% in experiment [1] (setting [10]) and 4% in experiment [2] (setting [11]). In addition, the inhibition constant (Ki) in experiment [3] (Lanthascreen Eu binding assay) came to 61.3 nM; in experiment [5] (Lanthascreen Eu binding assay), 22 nM. In addition, the inhibition at 25 µM in experiment [4] (setting [9]) is 69.2%.

`CN(C)C(=O)c1cccc(NC(=O)N2CC=C(c3ncnc4[nH]c5c(c34)CCC5)CC2)c1` [Compound 134, N-[3-(Dimethylcarbamoyl)phenyl]-4-(7,9,11-triazatricyclo [6.4.0.02,6]dodeca-1(8),2(6),9,11-tetraen-12-yl)-3,6-dihydropyridine-1(2H)-carboxamide]: the results for the inhibition at 1 µM in experiment [1] (setting [6]) and in experiment [2] (setting [7]) were -5% and -20%, respectively. The Ki in experiment [3] (Lanthascreen Eu binding assay) was 33.4 nM; in experiment [5] (Lanthascreen Eu binding assay) it was 36.1 nM. The inhibition at 25 µM in experiment [4] (setting [8]) and in experiment [4] (setting [9]) was 77.1% throughout.

Regarding `Cc1c[nH]c2ncnc(C3=CCN(C(=O)Nc4cccc(-c5cccc(OCCCNS(C)(=O)=O)c5)c4)CC3)c12` [Compound 175, N-[3-[3-[3-(methanesulfonamido)propoxy]phenyl]phenyl]-4-(5-methyl-7H-pyrrolo[2,3-d]pyrimidin-4-yl)-3,6-dihydro-2H-pyridine-1-carboxamide], the figures for the inhibition at 1 µM in experiment [1] (setting [6]) and in experiment [2] (setting [7]) were 36% and 43%, respectively. Besides, the values for the inhibition constant (Ki) in experiment [3] (Lanthascreen Eu binding assay) and in experiment [5] (Lanthascreen Eu binding assay) were 9.66 nM and 12 nM, respectively. For the same compound, the inhibition at 25 µM in experiment [4] (setting [9]) amounted to 98.1%.

As for `CN(C)Cc1cccc(NC(=O)N2CC=C(c3ncnc4[nH]c5c(c34)CCC5)CC2)c1` [Compound 132, N-[3-[(dimethylamino)methyl]phenyl]-4-(7,9,11-triaza-tricyclo[6.4.0.02,6]dodeca-1(8),2(6),9,11-tetraen-12-yl)-3,6-dihydropyridine-1(2H)-carboxamide], the inhibition at 1 µM in experiment [1] (setting [6]) was 2%; in experiment [2] (setting [7]) it was -6%. The inhibition constant Ki in experiment [3] (Lanthascreen Eu binding assay) is 415 nM; in experiment [5] (Lanthascreen Eu binding assay) it was 389 nM. For the same compound, the inhibition at 25 µM in experiment [4] (setting [8]) and in experiment [4] (setting [9]) was 76.2% throughout.

Take `O=C(Nc1cccc(Br)c1)N1CC=C(c2ncnc3[nH]c4c(c23)CCC4)CC1` [Compound 112, N-(3-Bromophenyl)-4-(5,6,7,8-tetrahydrocyclopenta[4,5]pyrrolo[2,3-d]pyrimidin-4-yl)-3,6-dihydropyridine-1(2H)-carboxamide]: the inhibition at 1 µM in experiment [1] (setting [10]) was found to be 13%; in experiment [2] (setting [11]) it was 8%. Further, the Ki in experiment [3] was 24 nM; in experiment [5] it was 7 nM. Besides, the inhibition at 25 µM in experiment [4] (setting [12]) and in experiment [4] (setting [13]) was 84.5% each time.

As to `COc1ccc(-c2cccc(NC(=O)N3CC=C(c4ncnc5[nH]c6c(c45)CCC6)CC3)c2)cc1` [Compound 136, N-[3-(4-Methoxyphenyl)phenyl]-4-(7,9,11-triaza-tricyclo[6.4.0.02,6]dodeca-1(8),2(6),9,11-tetraen-12-yl)-3,6-dihydropyridine-1(2H)-carboxamide], the inhibition at 1 µM in experiment [1] (setting [6]) is 11%; in experiment [2] (setting [7]), 6%. Moreover, the inhibition constant (Ki) in experiment [3] (Lanthascreen Eu binding assay) amounted to 21.6 nM; in experiment [5] (Lanthascreen Eu binding assay) it was 2.75 nM. In addition, the inhibition at 25 µM in experiment [4] (setting [8]) and in experiment [4] (setting [9]) was 85.5% each time.

Regarding `COCOCc1cccc(NC(=O)N2CC=C(c3ncnc4[nH]c5c(c34)CCC5)CC2)c1` [Compound 135, N-[3-(Methoxymethoxymethyl)phenyl]-4-(7,9,11-triaza-tricyclo[6.4.0.02,6]dodeca-1(8),2(6),9,11-tetraen-12-yl)-3,6-dihydropyridine-1(2H)-carboxamide], the inhibition at 1 µM is -3% in experiment [1] (setting [6]) and -14% in experiment [2] (setting [7]). Besides, the figures for the Ki in experiment [3] (Lanthascreen Eu binding assay) and in experiment [5] (Lanthascreen Eu binding assay) were 36.2 nM and 22.1 nM, respectively. In addition, the inhibition at 25 µM in experiment [4] (setting [8]) and in experiment [4] (setting [9]) was 85% throughout.

On to `O=C(Nc1cccc(N2CCOCC2)c1)N1CC=C(c2ncnc3[nH]c4c(c23)CCC4)CC1` [Compound 130, N-(3-morpholinophenyl)-4-(7,9,11-triazatricyclo[6.4.0.02,6]dodeca-1(8),2(6),9,11-tetraen-12-yl)-3,6-dihydropyridine-1(2H)-carboxamide], for which the results for the inhibition at 1 µM in experiment [1] (setting [6]) and in experiment [2] (setting [7]) were 0% and 26%, respectively. Moreover, the Ki in experiment [3] (Lanthascreen Eu binding assay) is 87.5 nM; in experiment [5] (Lanthascreen Eu binding assay), 26.7 nM. The inhibition at 25 µM in experiment [4] (setting [8]) and in experiment [4] (setting [9]) was 79.2% throughout.

As for `CNC(=O)c1cccc(NC(=O)N2CC=C(c3ncnc4[nH]c5c(c34)CCC5)CC2)c1` [Compound 133, N-[3-(Methylcarbamoyl)phenyl]-4-(7,9,11-triazatricyclo [6.4.0.02,6]dodeca-1(8),2(6),9,11-tetraen-12-yl)-3,6-dihydropyridine-1(2)-carboxamide], the “% inhibition (ROCK2) 1 uM” value in experiment [1] (1 uM) worked out at 1%. Moreover, in experiment [2] (1 uM), the “% inhibition (ROCK1) 1 uM” value was −19%. Further, the Ki turned out to be 40.5 nM in experiment [3] (Lanthascreen Eu binding assay) and 49.1 nM in experiment [5] (Lanthascreen Eu binding assay). Also, the “% inhibition Cofilin phosphorylation HeLa cells treated 2 h with 25 uM of inhibitor” value in experiment [4] (HeLa cells, 2 h, 25 uM) stood at 78.8%. Besides, the “% inhibition of cofilin phosphorylation in HeLa cells (treatment 2 h, at 25 μM)” value in experiment [4] (Table 2, normalized to the control condition DMSO) is 78.8%.

Turning to `COc1cccc(NC(=O)N2CC=C(c3ncnc4[nH]c5c(c34)CCC5)CC2)c1` [Compound 121, N-(3-Methoxyphenyl)-4-(5,6,7,8-tetrahydrocyclopenta[4,5]pyrrolo[2,3-d]pyrimidin-4-yl)-3,6-dihydropyridine-1(2H)-carboxamide], the inhibition at 1 µM came to 18% in experiment [1] (setting [6]) and 3% in experiment [2] (setting [7]). In addition, the inhibition constant (Ki) in experiment [3] (Lanthascreen Eu binding assay) is 25.2 nM; in experiment [5] (Lanthascreen Eu binding assay), 6.1 nM. Besides, the inhibition at 25 µM in experiment [4] (setting [9]) was 64.5%.

Regarding `O=C(Nc1cccc(Br)c1)N1CC=C(c2ncnc3[nH]c4c(c23)CCCCC4)CC1` [Compound 118, N-(3-Bromophenyl)-4-(5,6,7,8,9,10-hexahydrocyclohepta[4,5]pyrrolo[2,3-d]pyrimidin-4-yl)-3,6-dihydropyridine-1(2H)-carboxamide], the results for the inhibition at 1 µM in experiment [1] (setting [10]) and in experiment [2] (setting [11]) were -4% and 10%, respectively. Further, the Ki in experiment [3] came out at 40.4 nM; in experiment [5] it was 14.7 nM. Besides, the inhibition at 25 µM in experiment [4] (setting [12]) and in experiment [4] (setting [13]) was 84.2% throughout.

`O=C(Nc1cccc(Br)c1)N1CC=C(c2ncnc3[nH]c4c(c23)CCCC4)CC1` [Compound 115, N-(3-Bromophenyl)-4-(6,7,8,9-tetrahydro-5H-pyrimido[4,5-b]indol-4-yl)-3,6-dihydropyridine-1(2H)-carboxamide]: the inhibition at 1 µM is 11% in experiment [1] (setting [10]) and 7% in experiment [2] (setting [11]). Also, the inhibition constant Ki in experiment [3] amounted to 16.2 nM; in experiment [5], 5.37 nM. For the same compound, the inhibition at 25 µM in experiment [4] (setting [12]) and in experiment [4] (setting [13]) was 81.8% throughout.

For the compound `CN(C)C(=O)Nc1cccc(NC(=O)N2CC=C(c3ncnc4[nH]c5c(c34)CCC5)CC2)c1` [Compound 131, N-[3-(Dimethylcarbamoylamino)phenyl]-4-(7,9,11-triaza-tricyclo[6.4.0.02,6]dodeca-1(8),2(6),9,11-tetraen-12-yl)-3,6-dihydropyridine-1(2H)-carboxamide], the inhibition at 1 µM stood at 1% in experiment [1] (setting [6]) and 14% in experiment [2] (setting [7]). Also, the Ki in experiment [3] (Lanthascreen Eu binding assay) came to 8.73 nM; in experiment [5] (Lanthascreen Eu binding assay) it was 46.9 nM. Besides, the inhibition at 25 µM in experiment [4] (setting [8]) and in experiment [4] (setting [9]) was 82.9% each time.

With `O=C(Nc1cccc(Oc2ccccc2)c1)N1CC=C(c2ncnc3[nH]cc(C4CC4)c23)CC1` [Compound 79, 4-(5-Cyclopropyl-7H-pyrrolo[2,3-d]pyrimidin-4-yl)-N-(3-phenoxyphenyl)-3,6-dihydropyridine-1(2H)-carboxamide], the values for the inhibition at 1 µM in experiment [1] (setting [6]) and in experiment [2] (setting [7]) were 8% and 6%, respectively. The figures for the inhibition constant (Ki) in experiment [3] (Lanthascreen Eu binding assay) and in experiment [5] (Lanthascreen Eu binding assay) were 10.9 nM and 42.5 nM, respectively. Besides, the inhibition at 25 µM in experiment [4] (setting [8]) and in experiment [4] (setting [9]) was 83.1% each time.

For `O=C(Nc1cccc(F)c1)N1CC=C(c2ncnc3[nH]c4c(c23)CCCC4)CC1` [Compound 113, N-(3-Fluorophenyl)-4-(6,7,8,9-tetrahydro-5H-pyrimido[4,5-b]indol-4-yl)-3,6-dihydropyridine-1(2H)-carboxamide], the inhibition at 1 µM in experiment [1] (setting [6]) was 4%; in experiment [2] (setting [7]), 7%. Further, the values for the Ki in experiment [3] (Lanthascreen Eu binding assay) and in experiment [5] (Lanthascreen Eu binding assay) were 25.6 nM and 7.13 nM, respectively. The inhibition at 25 µM in experiment [4] (setting [9]) was determined as 87%.
